Laboratory results taken from patent US6803044B1, “Antimicrobial and anti-inflammatory peptides for use in human immunodeficiency virus” (priority 1999, dated 2004).
Ends that are not written are not given here.

Tests used:
[1] = tested on: chronically HIV-1 infected promonocytic U1 cell line; experiment: p24 antigen release by stimulated U1 cells (ELISA); type: cell-based; conditions: for most effective concentration for HIV inhibition (p24 release): tested 10^−13 to 10^−4 M
Protocol: (§1) Before use, cells were washed three times with HBSS (Gibco) to remove extracellular virus. […] In crowding experiments, U1 cells were seeded at the density of 2×10^5 mL and maintained in culture at 37° C. in 5% CO2 without change of medium for 7 days. […] In all experiments each condition was tested in triplicate.
(§2) p24 antigen release (Cellular Products Inc. Buffalo, N.Y., USA) and reverse transcriptase (ELISA Retrosys RT assay, Innovagen, Lund, Sweden) were determined using commercial ELISA kits.

[2] = tested on: C. albicans (clinical isolate); experiment: Melanocortin peptides on C. albicans viability (colony forming units); type: cell-based; conditions: for C. albicans colony forming units (CFU): two hours at 37° C.; for reduction of C. albicans CFU at higher concentrations: up to 10^−4M
Protocol: S. aureus (ATCC 29213) and C. albicans (clinical isolate) were obtained from the collection of the Department of Microbiology, Ospedale Maggiore di Milano. C. albicans were maintained on Sabouraud'[…] periodically transferred to Sabouraud's agar plates and incubated for 48 hours at 28° C. To prepare stationary growth phase yeast, a colony was taken from the agar plate and transferred into 30 ml Sabouraud-dextrose broth and incubated for 72 hours at 32° C. Cells were centrifuged at 100×g for 10 minutes and the pellet was washed twice with distilled water. Cells were counted and suspended in Hank's balanced salt solution (“HBSS”) to the desired concentration. Viability, determined by the exclusion of 0.01% methylene blue, remained >98%. […] Cells were then washed in cold distilled water and diluted with HBSS to a concentration of 100 organisms/ml. One ml aliquots were dispensed on blood agar plates and incubated for 48 hours at 37° C. Organism viability was estimated from the number of colonies formed. In subsequent experiments using similar procedures we compared activity of α-MSH (4-10), (6-13), (11-13), ACTH (1-39), (18-39), and fluconazole, the latter an established […]. […] There were at least six replicates for each concentration of peptide. […] The reaction was stopped after three minutes by the addition of ice cold ethanol. cAMP was measured in duplicate using a commercial enzyme immunoassay (EIA) kit (Amersham, United Kingdom) after extraction via the liquid-phase method according to manufacturer's instructions.

S. aureus = experiment: Urokinase-induced growth enhancement of S. aureus; type: cell-based; conditions: peptide 10^−6M; urokinase 500 U; four hours
From the text: In experiments on S. aureus, we determined the influence of α-MSH on urokinase-induced growth-enhancement. Hart, D. A.; Loule, T.; Krulikl, W.; Reno, C., Staphylococcus Aureus Strains Differ in Their in Vitro Responsiveness to Human Urokinase: Evidence that Methicillin-Resistant Strains are Predominantly Nonresponsive to the Growth-Enhancing Effects of Urokinase, Can. J. Microbiol. 42, 1024-31 […]. […] Appropriate dilutions of S. aureus were dispensed on agar plates and colonies counted after 24 hours incubation at 37° C.

[3] = tested on: C. albicans killing by human neutrophils; experiment: C. albicans killing by human neutrophils; type: cell-based; conditions: two hours at 37° C.
Protocol: Venous blood (20 ml) from healthy volunteers was anticoagulated with heparin. Neutrophils were isolated using dextran sedimentation and Ficoll-Hypaque (Sigma Chemical Co., St. Louis, Mo., USA) centrifugation. Erythrocytes were lysed via hypotonic shock. Neutrophils represented at least 97% of the cell suspension. Cell viability, estimated by trypan blue exclusion, was >98%. Neutrophils were suspended to final concentration in HBSS. […] After incubation, the culture tubes were placed on ice to stop growth and extracellular organisms were washed twice with centrifugation at 100×g at 4° C. A 2.5% sodium desoxycholate solution was added to the suspension and the tubes were shaken for five minutes. Cold distilled water was added to obtain a suspension of 10^6 cells/ml. Two 1/100 serial dilution in HBSS were made to obtain a final suspension of 100 cells/ml. Aliquots of 1 ml were dispensed on blood agar plates and incubated for 48 hours at 37° C. Colony forming units (“CFU”) were counted at the end of the incubation period. Experiments were run in triplicate and repeated using blood from five different donors.

C. albicans [4] = experiment: cAMP accumulation in C. albicans (EIA); type: cell-based; conditions: 10^−6M; three minutes
Protocol: The reaction was stopped after three minutes by the addition of ice cold ethanol. cAMP was measured in duplicate using a commercial enzyme immunoassay (EIA) kit (Amersham, United Kingdom) after extraction via the liquid-phase method according to manufacturer's instructions.

S. aureus (ATCC 29213) = experiment: Melanocortin peptides on S. aureus viability (colony formation); type: cell-based; conditions: two hours at 37° C.
Protocol: S. aureus (ATCC 29213) and C. albicans (clinical isolate) were obtained from the collection of the Department of Microbiology, Ospedale Maggiore di Milano. C. albicans were maintained on Sabouraud'[…] periodically transferred to Sabouraud's agar plates and incubated for 48 hours at 28° C. To prepare stationary growth phase yeast, a colony was taken from the agar plate and transferred into 30 ml Sabouraud-dextrose broth and incubated for 72 hours at 32° C. Cells were centrifuged at 100×g for 10 minutes and the pellet was washed twice with distilled water. Cells were counted and suspended in Hank's balanced salt solution (“HBSS”) to the desired concentration. Viability, determined by the exclusion of 0.01% methylene blue, remained >98%. […] Cells were then washed in cold distilled water and diluted with HBSS to a concentration of 100 organisms/ml. One ml aliquots were dispensed on blood agar plates and incubated for 24 hours at 37° C. Organism viability was estimated from the number of colonies formed.

[5] = in vivo; cited from earlier work
[6] = centrally administered, rabbit; cited from earlier work
[7] = tested on: chronically HIV-1 infected promonocytic U1 cell line; experiment: reverse transcriptase (RT) release by stimulated U1 cells (ELISA); type: cell-based; conditions: U1 cells induced by IL-6, IL-10, PMA, and in crowding condition; KPV 10^−5 M
Protocol: as §1, §2

NF-κB = experiment: Electrophoretic mobility shift assay of NF-κB DNA-binding activity in U1 cells; type: cell-based; conditions: 10^−5 M peptide
From the text: The mixtures were run on a 5% (30:1) acrylamide gel in 1× Tris-Borate-EDTA (TBE). Gels were dried and exposed to film for autoradiography (3 days).

[8] = tested on: HIV-1 RNA in PMA-stimulated U1 cells; experiment: Northern blot for HIV-1 RNA in U1 cells; type: cell-based; conditions: PMA (1 ng/mL)-stimulated U1 cells; KPV 10^−5 M; 24 h
From the text: Total RNA was extracted by the guanidine thiocyapate phenol method using an RNA isolation kit (Tripure, Boehringer Mannheim, Indianapolis, Ind.), following the manufacturer's instructions. Ten μg of total RNA were separated by 0.8% agarose/formaldehyde gel electrophoresis and transferred onto nylon membrane. The filters were baked and hybridized for 18 hr with α^32 P-labeled HIV-full length probe (kind gift of L. Turchetto and E. Vicenzi, S. Raffaele Hospital, Milan, Italy). The radiolabelling reaction was performed using a DNA labelling kit (Ready-to-go, Pharmacia Biotech, San Francisco, Calif.). Filters were washed and exposed to X-ray film for 5 days. The labeled probe was removed by washing at 80° C. in 0.1×SSC containing 0.1% sodium dodecyl sulphate and then rehybridized witb α^32 P-labeled glyceraldehyde-3-phosphate dehydrogenase (GAPDH) cDNA probe. Densitometric analysis was performed using ImageMaster™ VDS 3.0 software (Pharmacia Biotech) and results were expressed as density units.

C. albicans [9] = experiment: α-MSH peptides on C. albicans germination (horse serum-induced); type: cell-based; conditions: horse serum-induced germ tube formation; peptide 10^−4M; 60 minutes
Protocol: C. albicans from stationary phase cultures were washed twice with distilled water and suspended in HBSS to a final concentration of 2×10^6/ml. Hyphal growth was induced by addition of 10% inactivated horse serum (GMCO/BRL, Paisley, Great Britain) to yeast incubated for 45 minutes at 37° C. with continuous shaking. […] The percentage of filamentous cells was evaluated under a light microscope with the aid of a hartocytometer. Experiments were run in triplicate and at least 200 cells were scored. Photomicrographs were taken with a MC100 […] attached to an Axioskop Zeiss microscope.

[10] = tested on: HIV-1Ba-L strain in human MDM; experiment: RT release in acutely infected monocyte derived macrophages (MDM); type: cell-based; conditions: KPV 10^−5 M daily, more pronounced on day 6, still significant on day 21
Protocol: as §2
Human peripheral blood mononuclear cells (PBMCs) were isolated from normal donors by Ficoll-Hypaque density gradient centrifugation. Monocytes were isolated by Percoll gradient separation and allowed to differentiate into macrophages (MDM) in complete medium RPMI plus 20% FCS in 24-well tissue culture plates at 10^6 cells/mL for 7-days. MDM were infected with monocytotropic HIV-1Ba-L strain (1:10) overnight. The undiluted viral stock contained 10^7 infectious Units/mL. After 24 h, MDM were washed and resuspended in complete medium, replaced 3 times/week, for 3 weeks. RT activity was measured weekly post-infection.

[11] = 10^−4M melanocortin peptides (FIG. 11 legend: 10^−6M)

**Q.** Which results are given for “SYSMEHFRWGKPV (listed as Homo sapiens) [α-MSH (1-13)]”?
**A.** inhibition of p24 release ([1]; TNF-α-stimulated U1 cells, picomolar peptide concentrations that occur in human plasma): 34-36%; most effective concentration for HIV inhibition (p24 release) ([1]; TNF-α-stimulated U1 cells): 10^−5 M; C. albicans colony forming units (CFU) [2]: greatly reduced; enhancing effect of urokinase on S. aureus colony formation (S. aureus): significantly inhibited; killing of C. albicans by human neutrophils [3]: enhanced killing; cAMP content of C. albicans (C. albicans [4]): enhanced cAMP content; S. aureus colony formation (S. aureus (ATCC 29213)): inhibited

**Q.** For HFRWGKPV [α-MSH (6-13)], which “relative potency in reducing C. albicans viability” value [2, 11] is on record?
**A.** most effective

**Q.** Which “relative potency in reducing C. albicans viability” value [2, 11] does the source give for “ACTH (1-39): melanocortin peptide ACTH (1-39) (SYSMEHFRWGKPVGKKRRPVKVYPNGAEDESAEAFPLEF; Corticotropin; UniProt P01189 138-176, looked up) [reference compound]” here?
**A.** did not reduce C. albicans viability

**Q.** What about the “reduction of C. albicans CFU at higher concentrations” value [2] of the same substance?
**A.** likewise ineffective

**Q.** With MEHFRWG [α-MSH sequence (4-10)] as the substance, how does the “inhibition of C. albicans CFU” value [2, 11] read?
**A.** approximately 50%

**Q.** Which “potency in reducing fever relative to parent peptide” value [5] does the source give for [Nle^4, D-Phe^7], α-MSH here?
**A.** approximately ten times more potent than the parent peptide

**Q.** With “10-13 sequence: α-MSH (11-13) with glycine added to form the 10-13 sequence (GKPV; ends and bridges not checked; UniProt P01189 147-150, looked up, fragment)” as the substance, how does the “antipyretic potency relative to the 11-13 sequence” value [6] read?
**A.** slightly decreased potency

**Q.** Which “effectiveness against microbes compared with α-MSH (11-13)” value ([2]; S. aureus and C. albicans) does the source give for “NH2-Val-Pro-Lys-Ac-Cys-Cys-Ac-Lys-Pro-Val-NH2 (Ac-CKPV-NH2; also: dimer linked through Cys-Cys) [KPV dimer]” here?
**A.** at least as effective as α-MSH (11-13)

**Q.** What about the “C. albicans colony forming units (CFU)” value [2] of the same substance?
**A.** inhibited

**Q.** And the “S. aureus colony formation” value (S. aureus (ATCC 29213))?
**A.** inhibited

**Q.** Which “most effective concentration for HIV inhibition (p24 release)” value ([1]; TNF-α-stimulated U1 cells) does the source give for KPV here?
**A.** 10^−5 M

**Q.** What about the p24 release ([1]; U1 cells induced by IL-6, IL-10, PMA, and in crowding condition, KPV 10^−5 M) of the same substance?
**A.** significantly inhibited

**Q.** What about the “C. albicans colony forming units (CFU)” value [2] of the same substance?
**A.** greatly reduced

**Q.** And the RT release [7]?
**A.** significantly inhibited

**Q.** And the “NF-κB activation (DNA binding)” value (NF-κB; TNF-α-treated U1 cells)?
**A.** significantly reduced

**Q.** And the “NF-κB activation (DNA binding)” value (NF-κB; resting U1 cells)?
**A.** did not alter

**Q.** And the “enhancing effect of urokinase on S. aureus colony formation” value (S. aureus)?
**A.** significantly inhibited

**Q.** What about the “reduction of both spliced and unspliced HIV-1 RNA” value [8] of the same substance?
**A.** approximately 50%

**Q.** What about the “killing of C. albicans by human neutrophils” value [3] of the same substance?
**A.** enhanced killing

**Q.** And the “reduction in the number of filamentous cells (inhibition of germination)” value (C. albicans [9])?
**A.** 54-58%

**Q.** What about the “cAMP content of C. albicans” value (C. albicans [4]) of the same substance?
**A.** enhanced cAMP content

**Q.** What about the “S. aureus colony formation” value (S. aureus (ATCC 29213)) of the same substance?
**A.** inhibited

**Q.** What about the RT release [10] of the same substance?
**A.** significantly inhibited

**Q.** Which results are given for “ACTH fragment (18-39): ACTH fragment (18-39) (CLIP) [reference compound]”?
**A.** relative potency in reducing C. albicans viability [2, 11]: did not reduce C. albicans viability; reduction of C. albicans CFU at higher concentrations [2]: likewise ineffective
